These results are taken from ChEMBL document CHEMBL1136292, “Synthesis and AMPA receptor antagonistic activity of a novel class of quinoxalinecarboxylic acid with a substituted phenyl group at the C-7 position” (Bioorg Med Chem Lett, 2003).

Assay [1] has as its target Glutamate receptor ionotropic, AMPA (Rattus norvegicus, UniProt P19490+P19491+P19492+P19493). The assay can be described thus: biochemical.
Description: Binding affinity for ionotropic glutamate receptor AMPA using [3H]AMPA as radioligand, bound to synaptic membranes prepared from rat cerebral cortex
Assay [2] has as its system Rattus norvegicus. The assay can be described thus: Neuroprotective effect in rat after iv administration at a dose of 20 mg/kg/h for 4 h. It is filed as functional.
For assay [3], the species on record is Rattus norvegicus. The assay is described as follows: In vitro inhibitory effect on AMPA-induced DC potential in rat cortical slices; active. It is filed as functional.
Assay [4] relates to Rattus norvegicus. The assay can be described thus: Neuroprotective effect in rat after iv administration at a dose of 15 mg/kg/h for 4 h. Type of assay: functional.
Assay [5] concerns Rattus norvegicus. The assay is described as follows: Neuroprotective effect in rat after iv administration at a dose of 2.5 mg/kg/h for 4 h. Type of assay: functional.
Assay [6] concerns Rattus norvegicus. The assay can be described thus: Neuroprotective effect in rat after iv administration at a dose of 5 mg/kg/h for 4 h. Type of assay: functional.
Assay [7] concerns Rattus norvegicus. The assay can be described thus: Neuroprotective effect in rat after iv administration at a dose of 30 mg/kg/h for 4 h. It is filed as functional.

Structures are written as SMILES. Calls of active or inactive are those of the source. The rule behind the calls is not given here. A value given as a limit tells only on which side of the number the result lay.

In the case of `O=C(O)c1nc2cc(-n3ccnc3)c([N+](=O)[O-])cc2[nH]c1=O`, the Ki in assay [1] came to 560 nM.

Compound `O=C(O)c1nc2cc(-n3ccnc3)c([N+](=O)[O-])cc2nc1O` showed an Activity in assay [2] of 0.2. Moreover, the “activity call (active/inactive)” value in assay [3] was “Active”.

Take `O=C(Nc1cccc(Cl)c1)OCc1cn(-c2cc3nc(C(=O)O)c(O)nc3cc2[N+](=O)[O-])cn1`: the Ki in assay [1] worked out at 18 nM.

In assay [1], `O=C(NCc1cccc(Br)c1)OCc1cn(-c2cc3nc(C(=O)O)c(O)nc3cc2[N+](=O)[O-])cn1` showed a Ki of 100 nM.

Turning to `Cc1ccc(NC(=O)OCc2cn(-c3cc4nc(C(=O)O)c(O)nc4cc3[N+](=O)[O-])cn2)cc1`, in assay [1], the Ki turned out to be 30 nM.

In turn, `O=c1[nH]c2cc(-n3ccnc3)c([N+](=O)[O-])cc2[nH]c1=O` [YM-90K] yielded an Activity in assay [4] of 2.8. Also, the Ki in assay [1] was found to be 100 nM. In addition, the “activity call (active/inactive)” value in assay [3] is “Active”.

In turn, `O=C(Nc1ccccc1Br)OCc1cn(-c2cc3nc(C(=O)O)c(O)nc3cc2[N+](=O)[O-])cn1` displayed an inhibition constant (Ki) in assay [1] of 30 nM.

For `O=C(Nc1ccccc1)OCc1cn(-c2cc3nc(C(=O)O)c(O)nc3cc2[N+](=O)[O-])ccc1=O`, the Ki in assay [1] came out at 170 nM. Against the preceding compound, the Ki is about 5.7-fold higher.

In turn, `Cc1ccccc1NC(=O)OCc1cn(-c2cc3nc(C(=O)O)c(O)nc3cc2[N+](=O)[O-])cn1` displayed a Ki in assay [1] of 16 nM.

On to `O=C(Nc1cccc(Br)c1)OCc1cn(-c2cc3nc(C(=O)O)c(O)nc3cc2[N+](=O)[O-])cn1`, for which the Ki in assay [1] was 16 nM.

As to `O=C(Nc1ccc(C(=O)O)cc1)OCCc1cn(-c2cc3nc(C(=O)O)c(=O)[nH]c3cc2[N+](=O)[O-])cn1`, affinity in assay [1] was put at a Ki of 270 nM.

`Cc1nccn1-c1cc2nc(C(=O)O)c(O)nc2cc1[N+](=O)[O-]` displayed an inhibition constant Ki in assay [1] of over 10000 nM.

Regarding `O=C(O)c1nc2cc(N3CCCCC3)c([N+](=O)[O-])cc2nc1O`, in assay [1], the Ki was 3800 nM.

With `O=C(Nc1ccc(Br)cc1)OCc1cn(-c2cc3nc(C(=O)O)c(=O)[nH]c3cc2[N+](=O)[O-])cn1`, the inhibition constant (Ki) in assay [1] was 32 nM.

Consider `Cc1cn(-c2cc3nc(C(=O)O)c(O)nc3cc2[N+](=O)[O-])cn1`, for which the Ki in assay [1] was found to be 1300 nM.

As to `O=C(O)c1nc2cc(-n3cnc(CO)c3)c([N+](=O)[O-])cc2[nH]c1=O`, in assay [1], the inhibition constant (Ki) came out at 2600 nM.

The compound `Cc1cccc(NC(=O)OCc2cn(-c3cc4nc(C(=O)O)c(O)nc4cc3[N+](=O)[O-])cn2)c1` came in with a Ki in assay [1] of 22 nM.

Turning to `O=C(Nc1ccc(C(=O)O)cc1)OCc1cn(-c2cc3nc(C(=O)O)c(O)nc3cc2[N+](=O)[O-])cn1`, the Activity in assay [5] is given as 3. The “activity call (active/inactive)” value in assay [3] is “Active”.

`O=C(Nc1cccc(C(=O)O)c1)OCc1cn(-c2cc3nc(C(=O)O)c(O)nc3cc2[N+](=O)[O-])cn1`: the Ki in assay [1] came out at 27 nM. Further, in assay [6], the Activity was 2.3. In addition, the “activity call (active/inactive)” value in assay [3] was “Active”.

`O=C(O)Cc1cn(-c2cc3nc(C(=O)O)c(O)nc3cc2[N+](=O)[O-])cn1` gave an inhibition constant Ki in assay [1] of 530 nM.

For `O=C(NCc1ccccc1Br)OCc1cn(-c2cc3nc(C(=O)O)c(O)nc3cc2[N+](=O)[O-])cn1`, the affinity in assay [1], expressed as Ki, was 29 nM.

As to `O=C(O)c1nc2cc(N3CCOCC3)c([N+](=O)[O-])cc2nc1O`, in assay [1], affinity was put at a Ki of 2000 nM.

`CN(C)c1cc2nc(C(=O)O)c(O)nc2cc1[N+](=O)[O-]` yielded a Ki in assay [1] of 910 nM.

Take `O=C(Nc1ccc(C(=O)O)cc1)OCc1cn(-c2cc3nc(C(=O)O)c(=O)[nH]c3cc2[N+](=O)[O-])cn1`: the Ki in assay [1] was found to be 22 nM.

In assay [1], `O=C(NCc1ccccc1)OCc1cn(-c2cc3nc(C(=O)O)c(=O)[nH]c3cc2[N+](=O)[O-])cn1` returned a Ki of 67 nM.

In assay [1], `O=C(O)Cn1c(=O)c(=O)[nH]c2cc([N+](=O)[O-])c(-n3ccnc3)cc21` [ZONAMPANEL] gave an inhibition constant (Ki) of 62 nM. The compound further came in with an Activity in assay [7] of 0.5. Besides, the “activity call (active/inactive)” value in assay [3] was “Active”.

As to `O=C(Nc1ccc(Cl)cc1)OCc1cn(-c2cc3nc(C(=O)O)c(O)nc3cc2[N+](=O)[O-])cn1`, the Ki in assay [1] came to 30 nM.

Compound `NS(=O)(=O)c1cccc2c1c([N+](=O)[O-])cc1nc(O)c(O)nc12` [NBQX] registered an Activity in assay [7] of 2.3.

In assay [1], `O=C(Nc1ccccc1Cl)OCc1cn(-c2cc3nc(C(=O)O)c(O)nc3cc2[N+](=O)[O-])cn1` had an inhibitory constant (Ki) of 20 nM.

In turn, `O=C(NCc1ccc(Br)cc1)OCc1cn(-c2cc3nc(C(=O)O)c(O)nc3cc2[N+](=O)[O-])cn1` showed a Ki in assay [1] of 47 nM.

For `O=C(Nc1ccccc1C(=O)O)OCc1cn(-c2cc3nc(C(=O)O)c(=O)[nH]c3cc2[N+](=O)[O-])cn1`, in assay [1], the Ki was over 900 nM.

Compound `O=C(O)c1nc2cc(F)c([N+](=O)[O-])cc2nc1O` had a Ki in assay [1] of 2000 nM.

The compound `O=C(Nc1ccccc1)OCc1cn(-c2cc3nc(C(=O)O)c(O)nc3cc2[N+](=O)[O-])cn1` gave a Ki in assay [1] of 86 nM.

`O=C(O)c1nc2cc(N3CCC(O)CC3)c([N+](=O)[O-])cc2nc1O` yielded a Ki in assay [1] of 2500 nM.

Regarding `O=C(O)c1nc2cc(-n3ccc(=O)cc3)c([N+](=O)[O-])cc2nc1O`, the affinity in assay [1], expressed as Ki, was 330 nM.
